Values of other authors as cited in US20060280691A1 (University of Alberta, priority 2005, published 2006).
≈ marks a conversion by molar mass, not a printed value.

How the values were obtained:
[1] = tested on: Streptococcus pyogenes
[2] = tested on: Bacillus anthracis
[3] = tested on: Neisseria gonorrhoeae
[4] = tested on: Pseudomonas aeruginosa

Question: Which MIC90 [1] does the source give for `O=C(O)c1cn(C2CC2)c2cc(N3CCNCC3)c(F)cc2c1=O` [Ciprofloxacin, ciprofloxacin] here?
Answer: 1 mg/L (≈ 3.02 µM)

Question: And the MIC [2]?
Answer: 1.6 mg/L (≈ 4.83 µM)

Question: And the MIC90 [3]?
Answer: 4 ng/mL (≈ 0.0121 µM)

Question: And the MIC90 [4]?
Answer: 4 mg/L (≈ 12.1 µM)
